According to patent US20140234365A1, “2-HYDROXYHIPPURIC ACID ANALOGS, AND METHODS FOR THEIR SYNTHESIS AND USE” (ALERE SAN DIEGO, INC., priority 2011, published 2014):

System: anti-2-Hydroxyhippuric acid antibody
Test: Competitive immunoassay for detecting 2-hydroxyhippuric acid (microfluidic device, fluorescent latex particle conjugate)
Assay type: binding
Conditions: analyte diluted into pools of human plasma, fluorescence read in TRIAGE meter after >15 minutes
Source text: A competitive assay for detecting 2-hydroxyhippuric acid in […] was developed using microfluidic devices manufactured at Alere San Diego, Inc. essentially as described in WO98/43739, WO98/08606, WO98/21563, and WO93/24231. An anti-2-Hydroxyhippuric acid antibody was developed by phage display using a hapten-KLH conjugate as immunogen. This antibody was conjugated to a 0.13 μm maleimide-functionalized latex particle via a free cysteine residue on the antibody. The detection reagent consisted of a 0.50 μm fluorescence energy transfer latex particle (essentially as described in U.S. Pat. Nos. 5,763,189, 6,238,931, and 6,251,687; and International Publication WO95/08772) made according to Example 6. […] (comprising 0.22% solids) of the antibody-particle conjugate was spotted onto the diagnostic lane of the microfluidic device, and 170 nL (comprising 0.4% solids) of the 2-Hydroxyhippuric acid-particle conjugate was applied to the device reaction chamber. Analytes were dissolved in deionized water, then diluted into pools of human plasma to achieve the desired final concentration. 210 μL of sample was applied to the device sample addition zone and allowed to run >15 minutes prior to reading the fluorescence in the TRIAGE (Biosite Incorporated) meter. A fluorescent signal was obtained by integrating the fluorescence as a function of distance from the device origin.

O=C(O)CNC(=O)c1ccccc1O [2-Hydroxyhippuric acid, 2-hydroxyhippuric acid]
concentration at which the assay detected the analyte: 10 µg/mL
